Measured values from US7964531B2, “3-phenoxy-4-pyridazinol derivatives and herbicidal composition containing the same” (Mitsui Chemicals Agro, Inc., priority 2001, dated 2011).

Experiments:
Assay type in all cases: in vivo
[1] = tested on: transplanted paddy-field rice; assay: Test Example 1: crop injury against transplanted paddy-field rice; conditions: wettable powder applied 3 days after transplanting, judged after 25 days
Procedure, shortened: (§1)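 Herbicidal effect and rice injury were graded on a six-step growth-inhibition scale (0: 0–10% to 5: 91–100%) at 25 days after pot application of water-diluted wettable powder, given 3 days post-transplant under flooded greenhouse conditions.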

Cyperus serotinus = assay: Test Example 1: herbicidal effects, paddy-field pot test; conditions: wettable powder applied 3 days after transplanting, judged after 25 days
Procedure, shortened: as §1

Scirpus joncoides = assay: as above; conditions: wettable powder applied 3 days after transplanting, judged after 25 days
Procedure, shortened: as §1

[2] = tested on: annual broad-leaved weeds (Lindernia spp., Rotala indica); assay: as above; conditions: wettable powder applied 3 days after transplanting, judged after 25 days
Procedure, shortened: as §1

[3] = tested on: barnyardgrass (Echinochloa oryzicola Vasing.); assay: as above; conditions: wettable powder applied 3 days after transplanting, judged after 25 days
Procedure, shortened: as §1

barnyardgrass [4] = assay: Test Example 2: herbicidal effects (soil treatment); conditions: dosage 5 kg/a; soil treatment the day after seeding; judged after 21 days
Source text: (§2) Judgment Standard • 0: Growth inhibition rate; 0 to 10% • 1: Growth inhibition rate; 11 to 30% • 2: Growth inhibition rate; 31 to 50% • 3: Growth inhibition rate; 51 to 70% • 4: Growth inhibition rate; 71 to 90% • 5: Growth inhibition rate; 91 to 100%.
(§3) Upland soil was filled in 150 cm^2 pot, and seeds of barnyardgrass and indian mustard (Brassica juncea (L.) Czern. et Coss) were sowed, and grown in a greenhouse. At the next day of seeding, a predetermined chemical dosage of the wettable powder prepared in accordance with Preparation example 1 was diluted in water and applied to soil surface. After 21 days from the treatment, herbicidal effects were judged in accordance with the judgment standard of Test example 1, and the results were shown in Table 3.

[5] = tested on: indian mustard (Brassica juncea (L.) Czern. et Coss); assay: as above; conditions: dosage 5 kg/a; soil treatment the day after seeding; judged after 21 days
Source text: as §2, §3

tall morningglory [6] = assay: Test Example 3: herbicidal effects (foliar treatment); conditions: chemical dosage 0.5 kg/a; foliar treatment at 10 to 15 cm; judged after 14 days
Method: as §2
(§4) Upland soil was filled in 150 cm^2 pot, and seeds of velvetleaf, tall morningglory, indian mustard, black nightshade redroot pigweed were sowed, and grown in a greenhouse. After the weeds were grown with 10 to 15 cm or so, a predetermined chemical dosage of the wettable powder prepared in accordance with Preparation example 1 was diluted with water containing 0.05% of GRAMIN-S and applied as a foliar treatment. After 14 days from the treatment, herbicidal effects were judged in accordance with the judgment standard of Test example 1, and the results were shown in Table 4. Incidentally, “-” in the table means no test was carried out.

redroot pigweed = assay: as above; conditions: chemical dosage 0.5 kg/a; foliar treatment at 10 to 15 cm; judged after 14 days
Method: as §2, §4

indian mustard = assay: as above; conditions: chemical dosage 0.5 kg/a; foliar treatment at 10 to 15 cm; judged after 14 days
Method: as §2, §4

corn [7] = assay: Test Example 5: crop injury against corn (soil treatment); conditions: after 21 days
Method: (§5) Upland soil was filled in 150 cm^2 pot, and seeds of barnyardgrass, Cyperus esculentus L., velvetleaf, black nightshade, tall morningglory and corn were sowed, and grown in a greenhouse. At the next day of seeding, a predetermined chemical dosage of the wettable powder prepared in accordance with Preparation example 5 was diluted with water and applied to soil surface. After 21 days from the treatment, herbicidal effects and crop injury against corn were judged according to the following judgment standard, and the results were shown in Tables 6 to 8.
(§6) Judgment Standard • 0: Growth inhibition rate; 0 to 9% • 1: Growth inhibition rate; 10 to 19% • 2: Growth inhibition rate; 20 to 29% • 3: Growth inhibition rate; 30 to 39% • 4: Growth inhibition rate; 40 to 49% • 5: Growth inhibition rate; 50 to 59% • 6: Growth inhibition rate; 60 to 69% • 7: Growth inhibition rate; 70 to 79% • 8: Growth inhibition rate; 80 to 89% • 9: Growth inhibition rate; 90 to 98% • 10: Growth inhibition rate; 99 to 100%.

tall morningglory [8] = assay: Test Example 5: herbicidal effects, upland (soil treatment); conditions: after 21 days
Method: as §5, §6

black nightshade [9] = assay: as above; conditions: after 21 days
Method: as §5, §6

Cyperus esculentus L. [10] = assay: as above; conditions: after 21 days
Method: as §5, §6

velvetleaf [11] = assay: as above; conditions: after 21 days
Method: as §5, §6

barnyardgrass [12] = assay: as above; conditions: after 21 days
Method: as §5, §6

tall morningglory [13] = assay: Test Example 6: herbicidal effects, upland (foliar treatment); conditions: after 14 days
Source text: as §6
(§7) Upland soil was filled in 150 cm^2 pot, and seeds of barnyardgrass, Cyperus esculentus L., velvetleaf, black nightshade, tall morningglory and corn were sowed, and grown in a greenhouse. After the weeds were grown with 10 to 15 cm or so, a predetermined chemical dosage of the wettable powder prepared in accordance with Preparation example 5 was diluted with water containing 0.05% of GRAMIN S and applied as a foliar treatment. After 14 days from the treatment, herbicidal effects and crop injury were judged in accordance with the judgment standard of Test example 5, and the results were shown in Tables 9 and 10. Incidentally, “-” in the table means no effective ingredient was contained.

black nightshade [14] = assay: as above; conditions: after 14 days
Source text: as §6, §7

Cyperus esculentus L. [15] = assay: as above; conditions: after 14 days
Source text: as §6, §7

velvetleaf [16] = assay: as above; conditions: after 14 days
Source text: as §6, §7

barnyardgrass [17] = assay: as above; conditions: after 14 days
Source text: as §6, §7

corn [18] = assay: Test Example 6: crop injury against corn (foliar treatment); conditions: after 14 days
Source text: as §6, §7

Oc1cc(Cl)nnc1Oc1c(F)cccc1C1CC1 [Example 236]
3 (Growth inhibition rate; 51 to 70%): Herbicidal effects Barnyard grass ([3]; chemical dosage 10 g/a) | Herbicidal effects Barnyard-grass (barnyardgrass [4]) | Herbicidal effects Redroot pigweed (redroot pigweed) | Herbicidal effects indian mustard (indian mustard)
0 (Growth inhibition rate; 0 to 10%): Crop injury against transplanted rice ([1]; chemical dosage 10 g/a) | Crop injury against transplanted rice ([1]; chemical dosage 20 g/a)
4 (Growth inhibition rate; 71 to 90%): Herbicidal effects Barnyard grass ([3]; chemical dosage 20 g/a) | Herbicidal effects Tall Morningglory (tall morningglory [6])
5 (Growth inhibition rate; 91 to 100%): Herbicidal effects Cyperus serotinus (Cyperus serotinus; chemical dosage 10 g/a) | Herbicidal effects Cyperus serotinus (Cyperus serotinus; chemical dosage 20 g/a) | Herbicidal effects Scirpus joncoides (Scirpus joncoides; chemical dosage 10 g/a) | Herbicidal effects Scirpus joncoides (Scirpus joncoides; chemical dosage 20 g/a) | Herbicidal effects Broad leaf ([2]; chemical dosage 10 g/a) | Herbicidal effects Broad leaf ([2]; chemical dosage 20 g/a) | Herbicidal effects indian mustard [5]

CS(=O)(=O)c1ccc(C(=O)C2C(=O)CCCC2=O)c(Cl)c1 [Compound E, 2-(2-chloro-4-mesylbenzoyl)cyclohexan-1,3-dione]
6 (Growth inhibition rate; 60 to 69%): Herbicidal effects Tall Morningglory (tall morningglory [8]; E alone 50 g/ha) | Herbicidal effects Black Nightshade (black nightshade [9]; E alone 100 g/ha) | Herbicidal effects Tall Morningglory (tall morningglory [13]; E alone 50 g/ha) | Herbicidal effects Cyperus esculentus (Cyperus esculentus L. [15]; E alone 50 g/ha)
8 (Growth inhibition rate; 80 to 89%): Herbicidal effects Cyperus esculentus (Cyperus esculentus L. [10]; E alone 50 g/ha) | Herbicidal effects Cyperus esculentus (Cyperus esculentus L. [10]; E alone 100 g/ha) | Herbicidal effects Cyperus esculentus (Cyperus esculentus L. [10]; E alone 200 g/ha) | Herbicidal effects Cyperus esculentus (Cyperus esculentus L. [15]; E alone 200 g/ha)
9 (Growth inhibition rate; 90 to 98%): Herbicidal effects Black Nightshade (black nightshade [9]; E alone 200 g/ha) | Herbicidal effects Barnyard grass (barnyardgrass [12]; E alone 100 g/ha) | Herbicidal effects Tall Morningglory (tall morningglory [13]; E alone 200 g/ha) | Herbicidal effects Black Nightshade (black nightshade [14]; E alone 50 g/ha) | Herbicidal effects Velvetleaf (velvetleaf [16]; E alone 50 g/ha)
1 (Growth inhibition rate; 10 to 19%): Herbicidal effects Barnyard grass (barnyardgrass [17]; E alone 50 g/ha)
0 (Growth inhibition rate; 0 to 9%): Crop injury against corn (corn [7]; E alone 50 g/ha) | Crop injury against corn (corn [7]; E alone 100 g/ha) | Crop injury against corn (corn [7]; E alone 200 g/ha) | Crop injury against corn (corn [18]; E alone 50 g/ha) | Crop injury against corn (corn [18]; E alone 100 g/ha) | Crop injury against corn (corn [18]; E alone 200 g/ha)
7 (Growth inhibition rate; 70 to 79%): Herbicidal effects Tall Morningglory (tall morningglory [8]; E alone 100 g/ha) | Herbicidal effects Black Nightshade (black nightshade [9]; E alone 50 g/ha) | Herbicidal effects Velvetleaf (velvetleaf [11]; E alone 50 g/ha) | Herbicidal effects Velvetleaf (velvetleaf [11]; E alone 100 g/ha) | Herbicidal effects Barnyard grass (barnyardgrass [12]; E alone 50 g/ha) | Herbicidal effects Tall Morningglory (tall morningglory [13]; E alone 100 g/ha) | Herbicidal effects Cyperus esculentus (Cyperus esculentus L. [15]; E alone 100 g/ha) | Herbicidal effects Barnyard grass (barnyardgrass [17]; E alone 200 g/ha)
2 (Growth inhibition rate; 20 to 29%): Herbicidal effects Barnyard grass (barnyardgrass [17]; E alone 100 g/ha)
10 (Growth inhibition rate; 99 to 100%): Herbicidal effects Tall Morningglory (tall morningglory [8]; E alone 200 g/ha) | Herbicidal effects Velvetleaf (velvetleaf [11]; E alone 200 g/ha) | Herbicidal effects Barnyard grass (barnyardgrass [12]; E alone 200 g/ha) | Herbicidal effects Black Nightshade (black nightshade [14]; E alone 100 g/ha) | Herbicidal effects Black Nightshade (black nightshade [14]; E alone 200 g/ha) | Herbicidal effects Velvetleaf (velvetleaf [16]; E alone 100 g/ha) | Herbicidal effects Velvetleaf (velvetleaf [16]; E alone 200 g/ha)

CS(=O)(=O)c1ccc(C(=O)C2C(=O)CCCC2=O)c([N+](=O)[O-])c1 [Compound F, 2-(4-mesyl-2-nitrobenzoyl)cyclohexan-1,3-dione]
0 (Growth inhibition rate; 0 to 9%): Crop ijury against corn (corn [7]; F alone 25 g/ha) | Crop ijury against corn (corn [7]; F alone 50 g/ha) | Crop ijury against corn (corn [7]; F alone 100 g/ha) | Herbicidal effects Barnyard grass (barnyardgrass [17]; F alone 25 g/ha) | Herbicidal effects Barnyard grass (barnyardgrass [17]; F alone 50 g/ha) | Crop injury against corn (corn [18]; F alone 25 g/ha) | Crop injury against corn (corn [18]; F alone 50 g/ha) | Crop injury against corn (corn [18]; F alone 100 g/ha)
5 (Growth inhibition rate; 50 to 59%): Herbicidal effects Tall Morningglory (tall morningglory [8]; F alone 50 g/ha) | Herbicidal effects Tall Morningglory (tall morningglory [13]; F alone 50 g/ha) | Herbicidal effects Cyperus esculentus (Cyperus esculentus L. [15]; F alone 50 g/ha)
9 (Growth inhibition rate; 90 to 98%): Herbicidal effects Cyperus esculentus (Cyperus esculentus L. [10]; F alone 50 g/ha) | Herbicidal effects Cyperus esculentus (Cyperus esculentus L. [10]; F alone 100 g/ha) | Herbicidal effects Velvetleaf (velvetleaf [11]; F alone 25 g/ha) | Herbicidal effects Barnyard grass (barnyardgrass [12]; F alone 100 g/ha) | Herbicidal effects Tall Morningglory (tall morningglory [13]; F alone 100 g/ha) | Herbicidal effects Black Nightshade (black nightshade [14]; F alone 100 g/ha) | Herbicidal effects Velvetleaf (velvetleaf [16]; F alone 25 g/ha)
3 (Growth inhibition rate; 30 to 39%): Herbicidal effects Black Nightshade (black nightshade [9]; F alone 50 g/ha)
4 (Growth inhibition rate; 40 to 49%): Herbicidal effects Barnyard grass (barnyardgrass [12]; F alone 25 g/ha) | Herbicidal effects Cyperus esculentus (Cyperus esculentus L. [15]; F alone 25 g/ha)
6 (Growth inhibition rate; 60 to 69%): Herbicidal effects Black Nightshade (black nightshade [9]; F alone 25 g/ha) | Herbicidal effects Cyperus esculentus (Cyperus esculentus L. [15]; F alone 100 g/ha)
10 (Growth inhibition rate; 99 to 100%): Herbicidal effects Velvetleaf (velvetleaf [11]; F alone 50 g/ha) | Herbicidal effects Velvetleaf (velvetleaf [11]; F alone 100 g/ha) | Herbicidal effects Black Nightshade (black nightshade [14]; F alone 50 g/ha) | Herbicidal effects Velvetleaf (velvetleaf [16]; F alone 50 g/ha) | Herbicidal effects Velvetleaf (velvetleaf [16]; F alone 100 g/ha)
8 (Growth inhibition rate; 80 to 89%): Herbicidal effects Tall Morningglory (tall morningglory [8]; F alone 100 g/ha) | Herbicidal effects Black Nightshade (black nightshade [9]; F alone 100 g/ha) | Herbicidal effects Cyperus esculentus (Cyperus esculentus L. [10]; F alone 25 g/ha) | Herbicidal effects Barnyard grass (barnyardgrass [12]; F alone 50 g/ha)
2 (Growth inhibition rate; 20 to 29%): Herbicidal effects Tall Morningglory (tall morningglory [8]; F alone 25 g/ha) | Herbicidal effects Tall Morningglory (tall morningglory [13]; F alone 25 g/ha) | Herbicidal effects Barnyard grass (barnyardgrass [17]; F alone 100 g/ha)
7 (Growth inhibition rate; 70 to 79%): Herbicidal effects Black Nightshade (black nightshade [14]; F alone 25 g/ha)
